Measurements from ChEMBL document CHEMBL2346657, “Synthesis of novel 2-amino-4-(5'-substituted 2'-phenyl-1H-indol-3'-yl)-6-aryl-4H-pyran-3-carbonitrile derivatives as antimicrobial and antioxidant agents” (2013).
Activity calls are given as the source filed them.

Tested on: Escherichia coli
Experiment: Antimicrobial activity against Escherichia coli MTCC 723 at 500 ug/ml after 24 hrs by cup plate method
Format: functional
Settings: MTCC 723, 24 h, read-out: IZ

Which zone of inhibition at 500 µg/mL does the source give for `Cc1ccc2[nH]c(-c3ccccc3)c(C3C=C(c4ccc(Cl)cc4)Oc4[nH]c(=S)nc(N)c43)c2c1` (stereo unspecified) here?
Its zone of inhibition at 500 µg/mL is 4 mm.

Tested on: Pseudomonas aeruginosa
Experiment: Antimicrobial activity against Pseudomonas aeruginosa MTCC 1688 at 750 ug/ml after 24 hrs by cup plate method
Format: functional
Settings: MTCC 1688, 24 h, read-out: IZ

Which zone of inhibition at 750 µg/mL does the source give for `Cc1ccc2[nH]c(-c3ccccc3)c(C3C=C(c4ccc(Cl)cc4)Oc4[nH]c(=S)nc(N)c43)c2c1` (stereo unspecified) here?
The zone of inhibition at 750 µg/mL was 9 mm.

Tested on: Escherichia coli
Experiment: Antimicrobial activity against Escherichia coli MTCC 723 at 1000 ug/ml after 24 hrs by cup plate method
Format: functional
Settings: MTCC 723, 24 h, read-out: IZ

For `Cc1ccc2[nH]c(-c3ccccc3)c(C3C=C(c4ccc(Cl)cc4)Oc4[nH]c(=S)nc(N)c43)c2c1` (stereo unspecified), which zone of inhibition at 1000 µg/mL is on record?
The zone of inhibition at 1000 µg/mL was 3 mm.

Tested on: Aspergillus flavus
Experiment: Antimicrobial activity against Aspergillus flavus MTCC 1973 at 1000 ug/ml after 72 hrs by cup plate method
Format: functional
Settings: MTCC 1973, 72 h, read-out: IZ

For `Cc1ccc2[nH]c(-c3ccccc3)c(C3C=C(c4ccc(Cl)cc4)Oc4[nH]c(=S)nc(N)c43)c2c1` (stereo unspecified), which zone of inhibition at 1000 µg/mL is on record?
Its zone of inhibition at 1000 µg/mL is 4 mm.

Tested on: Aspergillus flavus
Experiment: Antimicrobial activity against Aspergillus flavus MTCC 1973 at 500 ug/ml after 72 hrs by cup plate method
Format: functional
Settings: MTCC 1973, 72 h, read-out: IZ

With `Cc1ccc2[nH]c(-c3ccccc3)c(C3C=C(c4ccc(Cl)cc4)Oc4[nH]c(=S)nc(N)c43)c2c1` (stereo unspecified) as the compound, how does the zone of inhibition at 500 µg/mL read?
The zone of inhibition at 500 µg/mL was 3 mm.

Tested on: Aspergillus niger
Experiment: Antimicrobial activity against Aspergillus niger MTCC 281 at 500 ug/ml after 72 hrs by cup plate method
Format: functional
Settings: MTCC 281, 72 h, read-out: IZ

Which zone of inhibition at 500 µg/mL does the source give for `Cc1ccc2[nH]c(-c3ccccc3)c(C3C=C(c4ccc(Cl)cc4)Oc4[nH]c(=S)nc(N)c43)c2c1` (stereo unspecified) here?
The zone of inhibition at 500 µg/mL was 5 mm.

Tested on: Aspergillus oryzae
Experiment: Antimicrobial activity against Aspergillus oryzae MTCC 3567 at 750 ug/ml after 72 hrs by cup plate method
Format: functional
Settings: MTCC 3567, 72 h, read-out: IZ

Which zone of inhibition at 750 µg/mL does the source give for `Cc1ccc2[nH]c(-c3ccccc3)c(C3C=C(c4ccc(Cl)cc4)Oc4[nH]c(=S)nc(N)c43)c2c1` (stereo unspecified) here?
The zone of inhibition at 750 µg/mL was 8 mm.

Tested on: Aspergillus niger
Experiment: Antimicrobial activity against Aspergillus niger MTCC 281 at 750 ug/ml after 72 hrs by cup plate method
Format: functional
Settings: MTCC 281, 72 h, read-out: IZ

For `Cc1ccc2[nH]c(-c3ccccc3)c(C3C=C(c4ccc(Cl)cc4)Oc4[nH]c(=S)nc(N)c43)c2c1` (stereo unspecified), which zone of inhibition at 750 µg/mL is on record?
Its zone of inhibition at 750 µg/mL is 5 mm.

Tested on: Klebsiella pneumoniae
Experiment: Antimicrobial activity against Klebsiella pneumoniae NCTC 13368 at 750 ug/ml after 24 hrs by cup plate method
Format: functional
Settings: NCTC 13368, 24 h, read-out: IZ

Which zone of inhibition at 750 µg/mL does the source give for `Cc1ccc2[nH]c(-c3ccccc3)c(C3C=C(c4ccc(Cl)cc4)Oc4[nH]c(=S)nc(N)c43)c2c1` (stereo unspecified) here?
Its zone of inhibition at 750 µg/mL is 3 mm.

Tested on: Aspergillus terreus
Experiment: Antimicrobial activity against Aspergillus terreus MTCC 1782 at 750 ug/ml after 72 hrs by cup plate method
Format: functional
Settings: MTCC 1782, 72 h, read-out: IZ

With `Cc1ccc2[nH]c(-c3ccccc3)c(C3C=C(c4ccc(Cl)cc4)Oc4[nH]c(=S)nc(N)c43)c2c1` (stereo unspecified) as the compound, how does the zone of inhibition at 750 µg/mL read?
The zone of inhibition at 750 µg/mL was 3 mm.

Tested on: Aspergillus oryzae
Experiment: Antimicrobial activity against Aspergillus oryzae MTCC 3567 at 500 ug/ml after 72 hrs by cup plate method
Format: functional
Settings: MTCC 3567, 72 h, read-out: IZ

Which zone of inhibition at 500 µg/mL does the source give for `Cc1ccc2[nH]c(-c3ccccc3)c(C3C=C(c4ccc(Cl)cc4)Oc4[nH]c(=S)nc(N)c43)c2c1` (stereo unspecified) here?
Its zone of inhibition at 500 µg/mL is 9 mm.

Tested on: Staphylococcus aureus
Experiment: Antimicrobial activity against Staphylococcus aureus ATCC 29513 at 1000 ug/ml after 24 hrs by cup plate method
Format: functional
Settings: ATCC 29513, 24 h, read-out: IZ

Which zone of inhibition at 1000 µg/mL does the source give for `Cc1ccc2[nH]c(-c3ccccc3)c(C3C=C(c4ccc(Cl)cc4)Oc4[nH]c(=S)nc(N)c43)c2c1` (stereo unspecified) here?
Its zone of inhibition at 1000 µg/mL is 11 mm.

Tested on: Escherichia coli
Experiment: Antimicrobial activity against Escherichia coli MTCC 723 at 750 ug/ml after 24 hrs by cup plate method
Format: functional
Settings: MTCC 723, 24 h, read-out: IZ

With `Cc1ccc2[nH]c(-c3ccccc3)c(C3C=C(c4ccc(Cl)cc4)Oc4[nH]c(=S)nc(N)c43)c2c1` (stereo unspecified) as the compound, how does the zone of inhibition at 750 µg/mL read?
Its zone of inhibition at 750 µg/mL is 3 mm.

Tested on: Aspergillus oryzae
Experiment: Antimicrobial activity against Aspergillus oryzae MTCC 3567 at 1000 ug/ml after 72 hrs by cup plate method
Format: functional
Settings: MTCC 3567, 72 h, read-out: IZ

For `Cc1ccc2[nH]c(-c3ccccc3)c(C3C=C(c4ccc(Cl)cc4)Oc4[nH]c(=S)nc(N)c43)c2c1` (stereo unspecified), which zone of inhibition at 1000 µg/mL is on record?
Its zone of inhibition at 1000 µg/mL is 9 mm.

Tested on: Pseudomonas aeruginosa
Experiment: Antimicrobial activity against Pseudomonas aeruginosa MTCC 1688 at 500 ug/ml after 24 hrs by cup plate method
Format: functional
Settings: MTCC 1688, 24 h, read-out: IZ

For `Cc1ccc2[nH]c(-c3ccccc3)c(C3C=C(c4ccc(Cl)cc4)Oc4[nH]c(=S)nc(N)c43)c2c1` (stereo unspecified), which zone of inhibition at 500 µg/mL is on record?
Its zone of inhibition at 500 µg/mL is 9 mm.

Tested on: not listed separately
Experiment: Antioxidant activity assessed as metal chelating activity by measuring inhibition of ferrozine-Fe2+ complex formation at 25 to 100 ug/ml
Format: functional
Settings: not given

With `Cc1ccc2[nH]c(-c3ccccc3)c(C3C=C(c4ccc(Cl)cc4)Oc4[nH]c(=S)nc(N)c43)c2c1` (stereo unspecified) as the compound, how does the Activity read?
Its Activity is “Active”.

Tested on: Staphylococcus aureus
Experiment: Antimicrobial activity against Staphylococcus aureus ATCC 29513 at 500 ug/ml after 24 hrs by cup plate method
Format: functional
Settings: ATCC 29513, 24 h, read-out: IZ

With `Cc1ccc2[nH]c(-c3ccccc3)c(C3C=C(c4ccc(Cl)cc4)Oc4[nH]c(=S)nc(N)c43)c2c1` (stereo unspecified) as the compound, how does the zone of inhibition at 500 µg/mL read?
The zone of inhibition at 500 µg/mL was 9 mm.

Tested on: Aspergillus niger
Experiment: Antimicrobial activity against Aspergillus niger MTCC 281 at 1000 ug/ml after 72 hrs by cup plate method
Format: functional
Settings: MTCC 281, 72 h, read-out: IZ

Which zone of inhibition at 1000 µg/mL does the source give for `Cc1ccc2[nH]c(-c3ccccc3)c(C3C=C(c4ccc(Cl)cc4)Oc4[nH]c(=S)nc(N)c43)c2c1` (stereo unspecified) here?
The zone of inhibition at 1000 µg/mL was 3 mm.

Tested on: Klebsiella pneumoniae
Experiment: Antimicrobial activity against Klebsiella pneumoniae NCTC 13368 at 1000 ug/ml after 24 hrs by cup plate method
Format: functional
Settings: NCTC 13368, 24 h, read-out: IZ

Which zone of inhibition at 1000 µg/mL does the source give for `Cc1ccc2[nH]c(-c3ccccc3)c(C3C=C(c4ccc(Cl)cc4)Oc4[nH]c(=S)nc(N)c43)c2c1` (stereo unspecified) here?
Its zone of inhibition at 1000 µg/mL is 5 mm.

Tested on: Aspergillus terreus
Experiment: Antimicrobial activity against Aspergillus terreus MTCC 1782 at 500 ug/ml after 72 hrs by cup plate method
Format: functional
Settings: MTCC 1782, 72 h, read-out: IZ

With `Cc1ccc2[nH]c(-c3ccccc3)c(C3C=C(c4ccc(Cl)cc4)Oc4[nH]c(=S)nc(N)c43)c2c1` (stereo unspecified) as the compound, how does the zone of inhibition at 500 µg/mL read?
Its zone of inhibition at 500 µg/mL is 3 mm.

Tested on: Klebsiella pneumoniae
Experiment: Antimicrobial activity against Klebsiella pneumoniae NCTC 13368 at 500 ug/ml after 24 hrs by cup plate method
Format: functional
Settings: NCTC 13368, 24 h, read-out: IZ

With `Cc1ccc2[nH]c(-c3ccccc3)c(C3C=C(c4ccc(Cl)cc4)Oc4[nH]c(=S)nc(N)c43)c2c1` (stereo unspecified) as the compound, how does the zone of inhibition at 500 µg/mL read?
The zone of inhibition at 500 µg/mL was 5 mm.

Tested on: Staphylococcus aureus
Experiment: Antimicrobial activity against Staphylococcus aureus ATCC 29513 at 750 ug/ml after 24 hrs by cup plate method
Format: functional
Settings: ATCC 29513, 24 h, read-out: IZ

With `Cc1ccc2[nH]c(-c3ccccc3)c(C3C=C(c4ccc(Cl)cc4)Oc4[nH]c(=S)nc(N)c43)c2c1` (stereo unspecified) as the compound, how does the zone of inhibition at 750 µg/mL read?
Its zone of inhibition at 750 µg/mL is 9 mm.

Tested on: Aspergillus terreus
Experiment: Antimicrobial activity against Aspergillus terreus MTCC 1782 at 1000 ug/ml after 72 hrs by cup plate method
Format: functional
Settings: MTCC 1782, 72 h, read-out: IZ

Which zone of inhibition at 1000 µg/mL does the source give for `Cc1ccc2[nH]c(-c3ccccc3)c(C3C=C(c4ccc(Cl)cc4)Oc4[nH]c(=S)nc(N)c43)c2c1` (stereo unspecified) here?
The zone of inhibition at 1000 µg/mL was 10 mm.

Tested on: not listed separately
Experiment: Antioxidant activity assessed as ferric ion reducing activity at 25 to 75 ug/ml by FRAP assay
Format: functional
Settings: not given

With `Cc1ccc2[nH]c(-c3ccccc3)c(C3C=C(c4ccc(Cl)cc4)Oc4[nH]c(=S)nc(N)c43)c2c1` (stereo unspecified) as the compound, how does the Activity read?
Its Activity is “Active”.

Tested on: Pseudomonas aeruginosa
Experiment: Antimicrobial activity against Pseudomonas aeruginosa MTCC 1688 at 1000 ug/ml after 24 hrs by cup plate method
Format: functional
Settings: MTCC 1688, 24 h, read-out: IZ

With `Cc1ccc2[nH]c(-c3ccccc3)c(C3C=C(c4ccc(Cl)cc4)Oc4[nH]c(=S)nc(N)c43)c2c1` (stereo unspecified) as the compound, how does the zone of inhibition at 1000 µg/mL read?
Its zone of inhibition at 1000 µg/mL is 9 mm.

Tested on: Aspergillus flavus
Experiment: Antimicrobial activity against Aspergillus flavus MTCC 1973 at 750 ug/ml after 72 hrs by cup plate method
Format: functional
Settings: MTCC 1973, 72 h, read-out: IZ

With `Cc1ccc2[nH]c(-c3ccccc3)c(C3C=C(c4ccc(Cl)cc4)Oc4[nH]c(=S)nc(N)c43)c2c1` (stereo unspecified) as the compound, how does the zone of inhibition at 750 µg/mL read?
Its zone of inhibition at 750 µg/mL is 3 mm.
